{
  "source": "patent US8841425B2",
  "about": "“Cytotoxic agents comprising new maytansinoids” (ImmunoGen, Inc., priority 2003, dated 2014)",
  "key": {"[1]": {"test_system": "CD19-positive Ramos human tumor cells", "assay": "MTT-based cytotoxicity of huB4-DM4, Ramos cells", "assay_type": "cell-based", "conditions": "MTT-based assay, FIG. 12", "procedure": "(§1) The cytotoxicity of huB4-DM4 toward CD19-expressing cells (Ramos) compared to a CD19-negative cell line (Colo 205) was tested using an MTT-based assay, where cell killing activity is determined by quantifying the number of viable cells that remain following treatment with conjugate. Viable cell number is determined by spectrophotometric quantitation following incubation of the cells with the vital dye MTT."}, "[2]": {"test_system": "CD19-negative cell line (Colo 205)", "assay": "MTT-based cytotoxicity of huB4-DM4, Colo 205 cells", "assay_type": "cell-based, human", "conditions": "MTT-based assay, non-target Colo 205 cells, FIG. 12", "procedure": "as §1"}, "[3]": {"test_system": "human Ramos tumor xenografts", "assay": "In vivo efficacy of huB4-DM4 against Ramos xenografts in SCID mice", "set-up": "species or system mouse", "procedure": "The efficacy of huB-DM4 in vivo was determined using SCID mice bearing established human Ramos tumor xenografts. Ramos cells were injected subcutaneously and tumors were allowed to grow to an average size of 100 mm^3. Dosage is expressed as μg DM4 in the conjugate, which corresponds to an antibody dose of approximately 44 μg antibody per μg of DM4. Tumor volume was measured as an indication of treatment efficacy and mouse body weight was monitored to indicate toxicity due to treatment. […] Animals remain without measurable disease for about 35 days in the […] treatment group, and for more than 55 days in the two highest dose groups."}, "CD19": {"target": "T1, CD19 (Homo sapiens, UniProt P15391)", "T1 sequence (P15391 20-556)": "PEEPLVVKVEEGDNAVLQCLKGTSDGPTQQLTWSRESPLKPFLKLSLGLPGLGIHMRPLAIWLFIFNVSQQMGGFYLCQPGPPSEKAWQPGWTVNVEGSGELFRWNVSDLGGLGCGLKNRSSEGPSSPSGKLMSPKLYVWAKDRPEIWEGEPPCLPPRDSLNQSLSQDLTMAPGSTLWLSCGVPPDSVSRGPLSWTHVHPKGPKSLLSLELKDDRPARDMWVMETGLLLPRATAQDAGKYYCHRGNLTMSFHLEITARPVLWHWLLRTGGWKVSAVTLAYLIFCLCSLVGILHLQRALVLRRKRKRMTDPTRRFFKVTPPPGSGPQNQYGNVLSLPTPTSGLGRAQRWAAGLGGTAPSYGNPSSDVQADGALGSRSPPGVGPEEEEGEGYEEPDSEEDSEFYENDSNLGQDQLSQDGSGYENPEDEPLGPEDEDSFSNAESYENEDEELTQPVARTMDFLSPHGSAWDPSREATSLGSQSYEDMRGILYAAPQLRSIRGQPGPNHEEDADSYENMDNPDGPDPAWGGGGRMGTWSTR", "assay": "Binding affinity of huB4 conjugate by flow cytometry", "conditions": "after conjugation", "procedure": "A solution of huB4 antibody at a concentration of 20 mg/mL was incubated for 1.5 h with an 8-fold molar excess of SSNPB [sulfosuccinimidyl 4-(5′-nitro-2′-pyridyldithio)butyrate] in 50 mM potassium phosphate buffer, pH 6.5 containing 2 mM ethylenediaminetetraacetic acid (buffer A) with 5% dimethylacetamide. The modified antibody was purified by passage through a Sephadex G25 gel filtration column equilibrated in buffer A and the concentration of the purified antibody was determined spectrophotometrically using the extinction coefficient for the antibody at 280 nm (199,560 M^−1 cm^−1). The modified antibody was diluted to 8 mg/mL with buffer A and incubated for 3 h at ambient temperature with a 1.7-fold molar excess of DM4, which was added to the reaction mixture as a stock solution in dimethylacetamide (final concentration of dimethylacetamide was 3% v/v). […] The concentration of conjugate was determined spectrophotometrically using the know extinction coefficients for antibody (ε280 nm: 199,560 M^−1 cm^−1; ε252 nm: 67,850 M^−1 cm^−1) and DM4 (ε280 nm=5,700 M^−1 cm^−1, ε252 […]=26,790 M^−1 cm^−1). […] The amount of drug associated with the antibody that was not linked covalently (free drug) was determined by HPLC analysis and was approximately 2% of the total linked drug."}},
  "data": [
    {"substance": "huB4-DM4: huB4 (anti-CD19) antibody modified with SSNPB and linked to DM4, average of 4.0 DM4 molecules per antibody molecule", "values": [
      {"measurement": "cell killing activity toward Ramos cells", "setting": "[1]", "result": "potent cell killing activity"},
      {"measurement": "toxicity toward CD19-negative cells", "setting": "[2]", "result": "No significant toxicity"},
      {"measurement": "toxicity as judged by changes in body weight", "setting": "[3]; SCID mice, single i.v. injection, FIG. 13b", "result": "very little if any toxicity"},
      {"measurement": "tumor response", "setting": "[3]; SCID mice, single i.v. injection, doses above 50 μg/kg", "result": "complete regression of the tumors in all animals"},
      {"measurement": "time without measurable disease", "setting": "[3]; single i.v. injection, 100 mg/kg treatment group", "result": "about 35 days"},
      {"measurement": "time without measurable disease", "setting": "[3]; single i.v. injection, two highest dose groups", "result": "more than 55 days"},
      {"measurement": "anti-tumor activity", "setting": "[3]; subcutaneous Ramos tumor model, FIG. 13a", "result": "high anti-tumor activity in a dose-dependent manner"},
      {"measurement": "tumor response", "setting": "[3]; subcutaneous Ramos tumor model, doses that are non-toxic, FIG. 13a,b", "result": "Complete tumor regressions and cures"},
      {"measurement": "binding affinity compared with unmodified antibody", "setting": "CD19", "result": "comparable to the unmodified antibody"}
    ]}
  ]
}
